# Laboratory results taken from US10322104B2, “Disulfur bridge linkers for conjugation of a cell-binding molecule” (Suzhou M-Conj Biotech Co., Ltd., priority 2015, dated 2019).
# Assays:
# [1] = system: human gastric carcinoma N-87 cell line tumor xenograft; assay: Antitumor activity in vivo, N-87 tumor xenograft; design: species or system female BALB/c Nude mice; conditions: one injection
# Method: Five-week-old female BALB/c Nude mice (30 animals) were inoculated subcutaneously in the area under the right shoulder with N-87 carcinoma cells (5×10^6 cells/mouse) in 0.1 mL of serum-free medium. The tumors were grown for 8 days to an average size of 136 mm^3. The animals were then randomly divided into 5 groups (6 animals per group). The first group of mice served as the control group and was treated with the phosphate-buffered saline vehicle. […] Three dimensions of the tumor were measured every 4 days and the tumor volumes were calculated using the formula tumor volume=½ (length×width×height). The weight of the animals was also measured at the same time. A mouse was sacrificed when any one of the following criteria was met: (1) loss of body weight of more than 20% from pretreatment weight, (2) tumor volume larger than 1500 mm^3, (3) too sick to reach food and water, or (4) skin necrosis. A mouse was considered to be tumor-free if no tumor was palpable.
# [2] = system: NCI-N87, a human gastric carcinoma cell line (Ag+); assay: In vitro cytotoxicity (MTT), N87 cells; type: cell-based
# Method: (§1) The cell lines used in the cytotoxicity assays were HL-60, a human promyelocytic leukemia cell line; NCI-N87, a human gastric carcinoma cell line; and SKOV3, a human ovarian carcinoma cell line. For HL-60, and NCI-N87, the cells were grown in RPMI-1640 with 10% FBS. For SKOV3 cells, the cells were grown in McCoy's 5A Medium with 10% FBS. To run the assay, the cells (180 μl, 6000 cells) were added to each well in a 96-well plate and incubated for 24 hours at 37° C. with 5% CO2. Next, the cells were treated with test compounds (20 μl) at various concentrations in appropriate cell culture medium (total volume, 0.2 mL). The control wells contain cells and the medium but lack the test compounds. The plates were incubated for 120 hours at 37° C. with 5% CO2. MTT (5 mg/ml) was then added to the wells (20 μl) and the plates were incubated for 1.5 hr at 37° C. The medium was carefully removed and DMSO (180 μl) was added afterward. After it was shaken for 15 min, the absorbance was measured at 490 nm and 570 nm with a reference filter of 620 nm. The inhibition % was calculated according to the following equation: inhibition %=[1−(assay-blank)/(control-blank)]×100.
# [3] = system: SKOV3, a human ovarian carcinoma cell line (Ag+); assay: In vitro cytotoxicity (MTT), SK-OV-3 cells; type: cell-based
# Method: as §1
# [4] = system: HL-60, a human promyelocytic leukemia cell line (Ag−); assay: In vitro cytotoxicity (MTT), HL-60 cells; type: cell-based; conditions: 120 hours incubation, read-out: IC50 (nM) HL60 cell (Ag−)
# Method: as §1
# [5] = relative to HL60 cell (Ag−) IC50
substance,measurement,setting,value
T-DM1,animals with no tumor measurable,"[1]; 5 mg/Kg i.v., at days 13 and 21 until day 37 and 45, 6 animals per group",2/6
same,duration of tumor growth inhibition,"[1]; 5 mg/kg, i.v.",about 44 days
same,anti-tumor effect (FIG. 12),"[1]; 5 mg/kg, i.v., day 13˜21 till day 60 (the end of experiment)",did not completely eliminate the tumor
same,IC50,"[2]; MTT, 120 hours incubation",0.266 nM
same,Specificity for N87 cell,[2]; [5],over 56
same,IC50,"[3]; MTT, 120 hours incubation",0.177 nM
same,Specificity for SK-OV-3 cell,[3]; [5],over 84
same,IC50,[4],> 15 nM
